This experiment has as its target T1, 5HT1A serotonin receptor (Rattus norvegicus, UniProt P19327).
T1 construct: To the cerebral cortex enucleated from a Wistarstrain male rat; from tissue; host or cells: cerebral cortex of male Wistar rat, washed membrane homogenate
T1 sequence (P19327 1-422): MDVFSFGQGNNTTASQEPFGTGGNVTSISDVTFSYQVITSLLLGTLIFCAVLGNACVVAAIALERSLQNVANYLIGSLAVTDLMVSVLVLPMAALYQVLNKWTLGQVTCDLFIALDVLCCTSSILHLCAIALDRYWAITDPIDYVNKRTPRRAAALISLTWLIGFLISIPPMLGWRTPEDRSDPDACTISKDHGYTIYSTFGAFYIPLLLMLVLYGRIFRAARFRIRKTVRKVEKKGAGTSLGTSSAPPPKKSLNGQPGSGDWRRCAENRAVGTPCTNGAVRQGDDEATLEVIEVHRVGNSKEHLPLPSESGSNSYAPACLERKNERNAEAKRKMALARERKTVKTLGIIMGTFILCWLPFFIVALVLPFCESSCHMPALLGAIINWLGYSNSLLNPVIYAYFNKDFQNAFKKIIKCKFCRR
The experiment in a line: Affinity for Serotonin Receptor ([3H]8-OH-DPAT binding, rat cerebral cortex homogenate). Further details: species or system rat (Wistar strain, male). The following applies: [3H]8-OH-DPAT 0.4 nM, 25° C., 30 minutes. The method, then: The test was conducted according to the method of S. T. Perouka (J. Neurochem., 47, 529-540 (1986)).
To the cerebral cortex enucleated from a Wistarstrain male rat was added 50 mM Tris-HCl (pH 7.7) buffer and the mixture was homogenized by using Polytron®. The homogenate was centrifuged at 40,000 G for 10 minutes, and to the obtained precipitate was added the same buffer to effect homogenization, followed by incubation at 37° C. for 30 minutes. The suspension was centrifuged again at 40,000 G for 10 minutes, and to the obtained precipitate was added the same buffer to effect homogenization, followed by centrifugation at 40,000 G for 10 minutes. To the final obtained precipitate was added 50 mM Tris-HCl (10 μm pargyline, 4 mM CaCl2, 0.1% ascorbic acid) (pH 7.4) buffer, to effect homogenization, and the homogenate was used for the binding test. The (^3 H) 8-OH-DPAT used for the binding test was 0.4 nM, with a protein amount of 0.4 to 0.6 mg/ml, and a total amount of 1 ml. After incubation at 25° C. for 30 minutes, the mixture was filtered by a filtration method using a Whatman GF/B filter, and the filter was washed three times with 5 ml of the same buffer.
To the filter was added a scintillation cocktail, and a measurement was conducted by a liquid scintillation counter.

The compound `O=C1c2ccccc2OCCN1CCCCN1CCN(c2ccccn2)CC1` [Example 27, 4-(4-(4-(2-pyridyl)piperazinyl)butyl)-2,3,4,5-tetrahydro-1,4-benzoxazepine-5-one] yielded an IC50 of 6.15 nM. As for `COc1ccccc1N1CCN(CCCCN2CCOc3ccccc3C2=O)CC1` [Example 30], the figure is 2.62 nM; as for `O=C1COc2ccccc2C(=O)N1CCCCN1CCN(c2ccccc2Cl)CC1` [Example 36, 4-(4-(4-(2-chlorophenyl)piperazinyl)butyl)-2,3,4,5-tetrahydro-1,4-benzoxazepine-3,5], 2.31 nM; as for `O=C1COc2ccccc2C(=O)N1CCCCN1CCN(c2cccc(Cl)c2)CC1` [Example 39], 1.41 nM. As for `O=C1COc2ccccc2C(=O)N1CCCCN1CCN(c2ccc(F)cc2)CC1` [Example 43, 4-(4-(4-(4-fluorophenyl)piperazinyl)-butyl)-2,3,4,5-tetrahydro-1,4-benzoxazepine-3,5], the figure is 2.48 nM; as for `O=C1COc2ccccc2C(=O)N1CCCCN1CCN(c2ncccc2Cl)CC1` [Example 48], 2.77 nM. Regarding `O=C1COc2ccccc2C(=O)N1CCCCN1CCN(c2ncccn2)CC1` [Example 52, 4-(4-(4-(2-pyrimidinyl)piperazinyl)butyl)-2,3,4,5-tetrahydro-1,4-benzoxazepine-3,5-d], the IC50 is 3.75 nM. This IC50 and that of the compound before are within 1.5-fold of each other.

As to `COc1ccc2c(c1)C(=O)N(CCCCN1CCN(c3ncccc3Cl)CC1)C(=O)CO2` [Example 54, 7-methoxy-4-(4-(4-(3-chloro-2-pyridyl)-piperazinyl)butyl)-2,3,4,5-tetrahydro-1,4-benzoxazepine-3,5-dione], the IC50 was determined as 4.91 nM. Then `COc1ccc2c(c1)C(=O)N(CCCCN1CCN(c3ncccn3)CC1)C(=O)CO2` [Example 58, 7-methoxy-4-(4-(4-(2-pyrimidinyl)piperazinyl)butyl)-2,3,4,5-tetrahydro-1,4-benzoxaze-3,5-dione], with 5.02 nM; and `O=C1COc2cc(Cl)ccc2C(=O)N1CCCCN1CCN(c2ccccn2)CC1` [Example 59, 8-chloro-4-(4-(4-(2-pyridyl)piperazinyl)butyl)-2,3,4,5-tetrahydro-1,4-benzoxazepine-3,5-dione], with 1.78 nM. As to `O=C1COc2cc(Cl)ccc2C(=O)N1CCCCN1CCN(c2ncccn2)CC1` [Example 64, 8-chloro-4-(4-(4-(2-pyrimidinyl)piperazinyl)butyl)-2,3,4,5-tetrahydro-1,4-benzoxazepine-3,5-dione], the IC50 came to 4.1 nM. In turn, `Cc1ccc2c(c1)OCC(=O)N(CCCCN1CCN(c3ccccn3)CC1)C2=O` [Example 65, 8-methyl-4-(4-(4-(2-pyridyl)piperazinyl)butyl)-2,3,4,5-tetrahydro-1,4-benzoxazepine-3,5-dione] returned an IC50 of 1.55 nM. As for `Cc1ccc2c(c1)OCC(=O)N(CCCCN1CCN(c3ncccn3)CC1)C2=O` [Example 70, 8-methyl-4-(4-(4-(2-pyrimidinyl)piperazinyl)butyl)-2,3,4,5-tetrahydro-1,4-benzoxazepine-3,5-dione], the figure is 4.75 nM. As for `COc1ccc2c(c1)OCC(=O)N(CCCCN1CCN(c3ncccn3)CC1)C2=O` [Example 72, 8-methoxy-4-(4-(4-(2-pyrimidinyl)piperazinyl)butyl)-2,3,4,5-tetrahydro-1,4-benzoxazepine-3,5-dione], the IC50 came out at 4.26 nM. Then `COc1ccnc(N2CCN(CCCCN3C(=O)COc4ccccc4C3=O)CC2)n1` [Example 83, 4-(4-(4-(4-methoxy-2-pyrimidinyl)piperazinyl)butyl)-2,3,4,5-tetrahydro-1,4-benzoxazepine-3,5-dione], with 4.16 nM.

The term IC50 denotes the concentration at which inhibition is half-maximal. High values mean weaker potency, low ones greater potency.

The record behind these values is patent US5071845A, “Benzoxazepine derivative” (Suntory Limited, priority 1988, dated 1991).
